Measured values published in US11331299B2, “Medicinal use of serrulatane diterpenes” (The University of Sydney, priority 2016, dated 2022).
Where two headings read alike, the source gives them in different places.

What was measured:
[1] = target: T1, BRPF1-1 (h) bromodomain (Homo sapiens, UniProt P55201); assay: Epigenetic binding assay, Bromodomain; details: Table 4; read-out: Reference IC50
T1 construct: Bromodomain
T1 sequence (P55201 628-732 limits assumed): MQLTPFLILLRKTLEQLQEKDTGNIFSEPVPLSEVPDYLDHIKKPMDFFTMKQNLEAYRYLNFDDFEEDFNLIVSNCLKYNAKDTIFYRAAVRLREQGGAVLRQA

[2] = target: receptors (Bioprint panel); assay: biochemical; assay type: binding; details: read-out: Reference Compound IC50
[3] = system: CCD 841 CoN; assay: OncoPanel normal cell proliferation assay (3-day); assay type: cell-based; details: Homo sapiens, 72 h, colon epithelial, 3-day incubation; for EC50: read-out: Cell Count EC50; for GI50: read-out: Cell Count GI50; for IC50: read-out: Cell Count IC50
[4] = system: Wi38; assay: OncoPanel normal cell proliferation assay (3-day); assay type: cell-based; details: Homo sapiens, WI-38, 72 h, Wi38, lung fibroblast, 3-day incubation; for EC50: read-out: Cell Count EC50; for GI50: read-out: Cell Count GI50; for IC50: read-out: Cell Count IC50
[5] = system: HREC; assay: OncoPanel normal cell proliferation assay (3-day); assay type: cell-based; details: 72 h, renal mixed epithelial, 3-day incubation; for EC50: read-out: Cell Count EC50; for GI50: read-out: Cell Count GI50; for IC50: read-out: Cell Count IC50
[6] = system: HMEC; assay: OncoPanel normal cell proliferation assay (3-day); assay type: cell-based; details: Homo sapiens, 72 h, HMEC, mammary epithelial, 3-day incubation; for EC50: read-out: Cell Count EC50; for GI50: read-out: Cell Count GI50; for IC50: read-out: Cell Count IC50
[7] = target: T2, KAT2A (GCN5L2) (h) bromodomain (Homo sapiens, UniProt Q92830); assay: Epigenetic binding assay, Bromodomain; details: Table 9, inhibition/concentration-response curve; read-out: IC50
T2 construct: Bromodomain
T2 sequence (Q92830 728-832 limits assumed): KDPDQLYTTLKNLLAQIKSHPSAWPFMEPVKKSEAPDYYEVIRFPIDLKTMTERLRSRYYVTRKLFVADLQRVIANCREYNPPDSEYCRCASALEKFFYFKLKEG

[8] = target: T3, TAF1(1) (h) bromodomain (Homo sapiens, UniProt P21675); assay: Epigenetic binding assay, Bromodomain; details: Table 4; read-out: Reference IC50
T3 construct: Bromodomain
T3 sequence (P21675 1397-1505 limits assumed): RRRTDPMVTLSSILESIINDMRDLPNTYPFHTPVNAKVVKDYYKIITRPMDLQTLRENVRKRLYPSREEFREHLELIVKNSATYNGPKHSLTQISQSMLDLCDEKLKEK

[9] = target: T4, TAF1(2)(h) bromodomain (Homo sapiens, UniProt P21675); assay: Epigenetic binding assay, Bromodomain; details: Table 4; read-out: Reference IC50
T4 construct: Bromodomain
T4 sequence (P21675 1519-1628 limits assumed): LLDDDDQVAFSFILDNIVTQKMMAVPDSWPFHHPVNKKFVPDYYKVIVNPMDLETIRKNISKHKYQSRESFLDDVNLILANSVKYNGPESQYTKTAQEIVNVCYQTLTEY

[10] = system: human pancreatic carcinoma MIA PaCa-2; details: 80 mg/kg Q4D x 4 IP
[11] = target: T5, FALZ (h) bromodomain (Homo sapiens, UniProt Q12830); assay: Epigenetic binding assay, Bromodomain; details: Table 4; read-out: Reference IC50
T5 construct: Bromodomain; Eurofins CEREP (France), contract laboratory

[12] = target: T6, ATAD2A (h) bromodomain (Homo sapiens, UniProt Q6PL18); assay: Epigenetic binding assay, Bromodomain; details: Table 9, inhibition/concentration-response curve; read-out: IC50
T6 construct: Bromodomain
T6 sequence (Q6PL18 980-1092 limits assumed): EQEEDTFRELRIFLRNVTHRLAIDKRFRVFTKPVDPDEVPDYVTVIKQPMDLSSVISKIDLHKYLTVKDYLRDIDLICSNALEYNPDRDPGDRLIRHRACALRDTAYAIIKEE

[13] = target: T7, SP140 (h) bromodomain (Homo sapiens, UniProt Q13342); assay: Epigenetic binding assay, Bromodomain
T7 construct: SP140 (h) bromodomain
T7 sequence (Q13342 754-857 limits assumed): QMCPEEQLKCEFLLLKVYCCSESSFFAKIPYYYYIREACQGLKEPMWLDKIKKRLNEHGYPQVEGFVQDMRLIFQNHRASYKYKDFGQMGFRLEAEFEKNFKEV

[14] = target: T8, PHIP(2) (h) bromodomain (Homo sapiens, UniProt Q8WWQ0); assay: Epigenetic binding assay, Bromodomain; details: Table 4; read-out: Reference IC50
T8 construct: Bromodomain

[15] = assay type: in vivo, female NOD/SCID mice; details: Study 1, IP, 35 mg/kg
Experimental: Two studies were conducted by Eurofins Panlabs Taiwan, Ltd. The purpose of Study 1 was to assess the possible adverse effects of Compound 1 alone or in combination with […] in Maximum Tolerated Dose (MTD) assay. The purpose of Study 2 is a follow-up study performed at escalating doses.
Compound 1 was dissolved in 10% Tween 20/90% PBS or 20% Tween 20/80% PBS for IP injections. Compound 1 was administrated alone or in combination with […] at a dosing volume of 10 or 20 mL/kg for each substance.
For mortality, test substance (Compound 1; 100 mg/kg) alone or in combination with […] (8.75, 17.5, or 35 mg/kg; given on the same day) was administered to mice by IP injection to evaluate the possible adverse effects in MTD assay. […]. […]
A follow-up MTD study was performed to evaluate for the adverse effects of the test substance (Compound 1) at escalating doses alone or in combination with […] (17.5 mg/kg) via IP in a group of 3 female NOD/SCID mice at 6-7 weeks of age.
For mortality, treatment with Compound 1 at escalating doses (200 mg/kg) alone and in combination with […] (17.5 mg/kg; given on the same day) were administered by IP injection to a group of 3 female NOD/SCID mice at 6-7 weeks of age. The mortality was monitored at 30 min and again at 3, 24, 48 and 72 hours after compound administrations.
For body weight, test substance (Compound 1) at escalating doses (200 mg/kg) alone or in combination with […] (17.5 mg/kg; given on the same day) were administered by IP injection to a group of 3 female NOD/SCID mice at 6-7 weeks of age. The body weight of each animal was measured and recorded daily for 3 days.
For behavioral, symptomatic i.e. neurological and autonomic signs, test substance (Compound 1; 200 mg/kg) alone or in combination with […] (17.5 mg/kg; given on the same day) were administered by IP injection to a group of 3 female NOD/SCID mice at 6-7 weeks of age. The animals were then observed for presences of acute toxic symptoms and autonomic effects for 30 min after the first dose.

Compound `CCOC(=O)Nc1cc(-c2ccc(C)c(NS(C)(=O)=O)c2)nn2c(C)nnc12` [Bromosporine, reference compound] has an IC50 [1] of 26 nM.

Compound `C[C@H](NC[C@H](O)CP(=O)(O)CC1CCCCC1)c1ccc(Cl)c(Cl)c1` [CGP 54626] has an IC50 ([2]; GABA GABAB(1b) (h) (antagonist radioligand)) of 2.2 nM.

`N#CC(C#N)=NNc1cccc(Cl)c1` [Carbonyl cyanide 3-chlorophenylhydrazone] gave an EC50 [3] of 10000 nM, a GI50 [3] of 6210 nM and an IC50 [3] of 10000 nM. It also gave an EC50 [4] of 8840 nM, a GI50 [4] of 6150 nM and an IC50 [4] of 8840 nM. The EC50 [5] was 553 nM, the GI50 [5] was 308 nM and the IC50 [5] was 1520 nM. For the same compound, the EC50 [6] was > 10000 nM, the GI50 [6] was 175 nM and the IC50 [6] was > 10000 nM.

For `CCCCCCCCCCCCCCCCOC[C@H](COP(=O)([O-])OCC[N+](C)(C)C)OC(C)=O` [Compound C16-PAF], the IC50 ([2]; PLATELET ACTIVATED FACTOR PAF (h) (agonist radioligand)) was 3.4 nM.

`CCCOc1ccn2c(C(C)=O)cc(-c3ccccc3S(C)(=O)=O)c2c1` [GSK2801, reference compound] gave an IC50 [7] of 10000 nM, an IC50 [8] of 4400 nM and an IC50 [9] of 10000 nM.

For `Nc1ccn([C@@H]2O[C@H](CO)[C@@H](O)C2(F)F)c(=O)n1` [Gemcitabine, reference compound], the “% T/C” value ([10]; Day 1) was 99%, the “% TGI” value ([10]; Day 1) was 1% and the “Tumor Volume, Mean” value ([10]; Day 1) was 89 mm3. The “% T/C” value ([10]; Day 4) was 100%, the “% TGI” value ([10]; Day 4) was 0% and the “Tumor Volume, Mean” value ([10]; Day 4) was 94 mm3. For the same compound, the “% T/C” value ([10]; Day 8) was 81%, the “% TGI” value ([10]; Day 8) was 19% and the “Tumor Volume, Mean” value ([10]; Day 8) was 107 mm3. The “% T/C” value ([10]; Day 11) was 70%, the “% TGI” value ([10]; Day 11) was 30% and the “Tumor Volume, Mean” value ([10]; Day 11) was 139 mm3. The “% T/C” value ([10]; Day 15) was 55%, the “% TGI” value ([10]; Day 15) was 45% and the “Tumor Volume, Mean” value ([10]; Day 15) was 207 mm3.

With `CCC(=O)N1CCOc2c(cc(-c3ccc(OC)c(OC)c3)cc2OC[C@H]2CCCN(C)C2)C1` [I-CBP112, reference compound] the IC50 [11] was 24500 nM.

Work on `Cc1cc(/N=N/c2cc(S(=O)(=O)O)c(C)cc2C)c(N)cc1O` [Ischemin, reference compound] yielded an IC50 [12] of 5200 nM, an IC50 ([13]; Table 4, read-out: Reference IC50) of 86000 nM and an IC50 ([13]; Table 9, inhibition/concentration-response curve, read-out: IC50) of 11000 nM.

Compound `N[C@@H](CCC(=O)O)C(=O)O` [L-glutamate] has an IC50 ([2]; GLUTAMATE CHANNELS AMPA (agonist radioligand)) of 370 nM.

In the case of `C[C@]12N[C@H](Cc3ccccc31)c1ccccc12` [MK 801], the IC50 ([2]; GLUTAMATE CHANNELS PCP (antagonist radioligand)) is reported as 9.6 nM.

`CCCCC[C@H](O)/C=C/[C@@H]1[C@@H](C/C=C\CCCC(=O)O)[C@@H](O)C[C@H]1O` [PGF2alpha] showed an IC50 ([2]; […] (h) (agonist radioligand)) of 3 nM.

Work on `COc1ccc(CCc2nc3cc(-c4c(C)noc4C)ccc3n2C[C@H](C)N2CCOCC2)cc1Cl` [SGC-CBP30, reference compound] yielded an IC50 [14] of 130 nM.

For `CN[C@@H]1C[C@H]2O[C@@](C)([C@@H]1OC)n1c3ccccc3c3c4c(c5c6ccccc6n2c5c31)C(=O)NC4` [Staurosporine], the GI50 [3] was 0.19 nM, the EC50 [4] was 0.49 nM and the GI50 [4] was 0.33 nM. For the same compound, the GI50 [5] was 0.5 nM, the EC50 [6] was 2.29 nM and the GI50 [6] was 0.91 nM.

For `C[C@@H]1C[C@@H]([C@H](O)CC2CC(=O)NC(=O)C2)C(=O)[C@@H](C)C1` [cycloheximide, reference compound], the EC50 [3] was 505 nM, the GI50 [3] was 588 nM and the IC50 [3] was 2770 nM. It also gave an EC50 [4] of 285 nM, a GI50 [4] of 369 nM and an IC50 [4] of 871 nM. The EC50 [5] was 117 nM, the GI50 [5] was 36.9 nM and the IC50 [5] was 593 nM. The EC50 [6] was 3650 nM, the GI50 [6] was 306 nM and the IC50 [6] was 10000 nM.

`CN1C(=O)CN=C(c2ccccc2)c2cc(Cl)ccc21` [diazepam] showed an IC50 [2] of 9.4 nM.

`COc1ccc([C@@H]2Sc3ccccc3N(CCN(C)C)C(=O)[C@@H]2OC(C)=O)cc1` [diltiazem] gave an IC50 ([2]; Ca2+ channel (L, diltiazem site) (benzothiazepines) (antagonist radioligand)) of 57 nM.

Work on `C=C(C)[C@H]1CN[C@H](C(=O)O)[C@H]1CC(=O)O` [kainic acid] yielded an IC50 [2] of 23 nM.

`C=C(C)[C@@H]1[C@H]2OC(=O)[C@@H]1[C@]1(O)C[C@H]3O[C@]34C(=O)O[C@H]2[C@]14C` [picrotoxinin] gave an IC50 ([2]; Cl- channel (GABA-gated) (antagonist radioligand)) of 330 nM.

NPY showed an IC50 ([2]; NE[…] Y1 (h) (agonist radioligand)) of 0.16 nM.

For TNF-alpha, the IC50 ([2]; CYTOKINES TNF-alpha (h) (agonist radioligand)) was 0.16 nM.

“[Nleu13]-motilin (FVPIFTYGELQRLQEKERNKGQ; Motilin norleucine at 13; UniProt P12872 26-47, looked up, variant M13L)” showed an IC50 ([2]; motilin(h) (agonist radioligand)) of 0.89 nM.

With alpha -bungarotoxin the IC50 [2] was 1.9 nM.

In the case of carboplatin [reference compound], the “Response (death/test)” value ([15]; 30 min) is reported as 0/3, the “Response (death/test)” value ([15]; 3 hrs) is reported as 0/3 and the “Response (death/test)” value ([15]; Day 1) is reported as 0/3. For the same compound, the “Response (death/test)” value ([15]; Day 2) was 0/3 and the “Response (death/test)” value ([15]; Day 3) was 0/3.

With glucagon the IC50 ([2]; glucagon (h) (agonist radioligand)) was 1 nM.

omega -conotoxin GVIA showed an IC50 [2] of 0.0017 nM.
